Source: ChEMBL document CHEMBL3243998, “Conformation of 2,9-dimethyl-3'-hydroxy-5-phenyl-6,7-genzomorphan and its relation to other analgetics and enkephalin” (J Med Chem, 1978)

Tests used:
Opioid receptor = Opioid receptor (Rattus norvegicus, UniProt P33533+P34975+P33535); assay: Displacement of [3H]naloxone from Sprague-Dawley rat cerebellum opioid receptor assessed as relative receptor affinity by scintillation counting; format: protein assay
Mus musculus = assay: Analgesic activity in sc dosed mouse assessed as inhibition of phenylquinone-induced writhing; format: functional; design: log(1/ED50): unit not given here
[1] = Mus musculus, sc, read-out: ED50

Row | SMILES | IC50 (Opioid receptor) [nM] | log(1/ED50) (Mus musculus) | ED50 (Mus musculus; [1]) [mg/kg] | ED50 (Mus musculus) [mg/kg]
1 | CN1CCC2(c3ccccc3)CC1Cc1ccccc12.O=C(O)C(O)C(O)C(=O)O (single isomer, unassigned; form 1) | 600 | 1.88 | 5.5 | 
2 | CCOC(=O)C1(c2ccccc2)CCN(C)CC1.Cl [MEPERIDINE HYDROCHLORIDE] |  | 1.61 | 7 | 
3 | CN1CC[C@]23CCCC[C@H]2[C@H]1Cc1ccc(O)cc13.O.O=C(O)C(O)C(O)C(=O)O |  |  | 0.24 | 
4 | CN1CCC2(c3ccccc3)CC1Cc1ccccc12.O=C(O)C(O)C(O)C(=O)O (single isomer, unassigned; form 2) | 3000 | 1.71 |  | 8
5 | C[C@H]1[C@H]2Cc3ccc(O)cc3[C@]1(c1ccccc1)CC[N+]2(C)C.[I-] | 320 |  |  | 
6 | C[C@H]1[C@H]2Cc3ccc(O)cc3[C@]1(c1ccccc1)CCN2C.Cl | 19 | 2.82 | 0.5 | 
7 | C[C@@H]1[C@@H]2Cc3ccc(O)cc3[C@@]1(c1ccccc1)CCN2C.Cl | 10000 | 1.9 | 4.2 | 
